From PubChem BioAssay AID248 (DTP/NCI, 2004)
Values joined by “and” are separate entries in the source; they are usually repeats but may differ in a detail not shown here. Equal entries are not always repeated. Inconclusive results and toxic doses are left out. Rule as the data show it: active = T/C of 150% or more; inactive = T/C below 125%.

Test system: L1210 leukemia ip in BDF1 mice, survival T/C
Test: NCI In Vivo Anticancer Drug Screen. Data for tumor model L1210 Leukemia (intraperitoneal) in B6D2F1 (BDF1) mice
Settings: endpoint: mean survival time, higher = longer survival
Method in brief: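 Read-out is survival time, reported as the treated-group measurement over the vehicle-control measurement.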

[1] = dose: 100.0 mg/kg/injection, schedule: Q01DX001 (ip), vehicle: carboxymethylcellulose (CMC)
[2] = dose: 200.0 mg/kg/injection, schedule: Q01DX001 (ip), vehicle: carboxymethylcellulose (CMC)
[3] = dose: 300.0 mg/kg/injection, schedule: Q01DX001 (ip), vehicle: carboxymethylcellulose (CMC)
[4] = dose: 400.0 mg/kg/injection, schedule: Q01DX001 (ip), vehicle: carboxymethylcellulose (CMC)
[5] = dose: 100.0 mg/kg/injection, schedule: Q01DX009 (ip), vehicle: Klucel (hydroxypropylcellulose) (HPC)
[6] = dose: 200.0 mg/kg/injection, schedule: Q01DX009 (ip), vehicle: Klucel (hydroxypropylcellulose) (HPC)
[7] = dose: 400.0 mg/kg/injection, schedule: Q01DX009 (ip), vehicle: Klucel (hydroxypropylcellulose) (HPC)
[8] = dose: 100.0 mg/kg/injection, schedule: Q04DX003 (ip), vehicle: saline with Tween-80
[9] = dose: 200.0 mg/kg/injection, schedule: Q04DX003 (ip), vehicle: saline with Tween-80
[10] = dose: 400.0 mg/kg/injection, schedule: Q04DX003 (ip), vehicle: saline with Tween-80
[11] = dose: 100.0 mg/kg/injection, schedule: Q01DX001 (ip), vehicle: Klucel (hydroxypropylcellulose) (HPC)
[12] = dose: 200.0 mg/kg/injection, schedule: Q01DX001 (ip), vehicle: Klucel (hydroxypropylcellulose) (HPC)
[13] = dose: 400.0 mg/kg/injection, schedule: Q01DX001 (ip), vehicle: Klucel (hydroxypropylcellulose) (HPC)

Measured: T/C

CCOC(=O)C(C[N+](C)(CC)CC)c1ccccc1 (stereo unspecified)
inactive: dose: 88.8 mg/kg/injection, schedule: Q01DX001 (ip), vehicle: carboxymethylcellulose (CMC) 97 % of control and 102 % of control | [1] 113 % of control | dose: 133.0 mg/kg/injection, schedule: Q01DX001 (ip), vehicle: carboxymethylcellulose (CMC) 105 % of control and 114 % of control | [2] 107 % of control and 118 % of control | [3] 95 % of control and 104 % of control | [4] 98 % of control

COc1c(Br)c(Br)c(Br)c(OC)c1OC
inactive: dose: 50.0 mg/kg/injection, schedule: Q01DX001 (ip), vehicle: carboxymethylcellulose (CMC) 98 % of control | [1] 101 % of control | [2] 106 % of control | [4] 98 % of control

CCO/C(C)=N/OC(=O)c1cc(Cl)ccc1Cl
inactive: dose: 100.0 mg/kg/injection, schedule: Q04DX002 (ip), vehicle: Klucel (hydroxypropylcellulose) (HPC) 98 % of control | dose: 200.0 mg/kg/injection, schedule: Q04DX002 (ip), vehicle: Klucel (hydroxypropylcellulose) (HPC) 110 % of control | dose: 400.0 mg/kg/injection, schedule: Q04DX002 (ip), vehicle: Klucel (hydroxypropylcellulose) (HPC) 113 % of control

NC(Cc1cn(Cc2ccccc2)cn1)C(=O)O (stereo unspecified)
inactive: dose: 12.5 mg/kg/injection, schedule: Q04DX003 (ip), vehicle: saline 109 % of control | dose: 25.0 mg/kg/injection, schedule: Q04DX003 (ip), vehicle: saline 89 % of control | dose: 50.0 mg/kg/injection, schedule: Q04DX003 (ip), vehicle: saline 106 % of control

Cc1ccc(C)c2c1CC(C(=O)O)CC2C (stereo unspecified)
inactive: dose: 100.0 mg/kg/injection, schedule: Q04DX003 (ip), vehicle: saline 93 % of control | dose: 200.0 mg/kg/injection, schedule: Q04DX003 (ip), vehicle: saline 110 % of control

O=c1oc(-c2cccc(Cl)c2)nc2cc(Cl)ccc12
inactive: [5] 104 % of control | [6] 116 % of control | [7] 115 % of control

COC(=O)C[As+](c1ccccc1)(c1ccccc1)c1ccccc1
inactive: dose: 38.0 mg/kg/injection, schedule: Q04DX003 (ip), vehicle: saline 91 % of control | dose: 75.0 mg/kg/injection, schedule: Q04DX003 (ip), vehicle: saline 100 % of control | dose: 150.0 mg/kg/injection, schedule: Q04DX003 (ip), vehicle: saline 96 % of control

CN(C=O)c1ccc(C(=O)NC(CC(=O)O)CC(=O)O)cc1
inactive: dose: 100.0 mg/kg/injection, schedule: Q01DX001 (ip), vehicle: saline 111 % of control | dose: 200.0 mg/kg/injection, schedule: Q01DX001 (ip), vehicle: saline 94 % of control | dose: 400.0 mg/kg/injection, schedule: Q01DX001 (ip), vehicle: saline 103 % of control

CC(CBr)C(=O)O (stereo unspecified)
inactive: dose: 100.0 mg/kg/injection, schedule: Q04DX002 (ip), vehicle: saline with Tween-80 97 % of control | dose: 200.0 mg/kg/injection, schedule: Q04DX002 (ip), vehicle: saline with Tween-80 97 % of control

COc1ccc(NC(=O)c2cccc([N+](=O)[O-])c2)cc1
inactive: [5] 96 % of control | [6] 93 % of control | [7] 96 % of control

ClSSc1c2ccccc2cc2ccccc12
inactive: dose: 75.0 mg/kg/injection, schedule: Q01DX001 (ip), vehicle: carboxymethylcellulose (CMC) 91 % of control | dose: 150.0 mg/kg/injection, schedule: Q01DX001 (ip), vehicle: carboxymethylcellulose (CMC) 92 % of control | [3] 88 % of control

O=[N+]([O-])c1cccc(Cl)c1Oc1cc(Cl)c(Cl)cc1Cl
inactive: dose: 1.25 mg/kg/injection, schedule: Q01DX001 (ip), vehicle: saline 105 % of control | dose: 2.5 mg/kg/injection, schedule: Q01DX001 (ip), vehicle: saline 105 % of control | dose: 5.0 mg/kg/injection, schedule: Q01DX001 (ip), vehicle: saline 102 % of control | dose: 10.0 mg/kg/injection, schedule: Q01DX001 (ip), vehicle: saline 96 % of control

CCOC(=O)c1ccc(NC(=O)Nc2ccccc2C(F)(F)F)cc1
inactive: [5] 88 % of control | [6] 89 % of control | [7] 86 % of control

CCCCNC(C)(C)C(SSSC(c1ccc(Cl)cc1)C(C)(C)NCCCC)c1ccc(Cl)cc1 (stereo unspecified)
inactive: dose: 12.0 mg/kg/injection, schedule: Q01DX009 (ip), vehicle: Klucel (hydroxypropylcellulose) (HPC) 104 % of control | dose: 25.0 mg/kg/injection, schedule: Q01DX009 (ip), vehicle: Klucel (hydroxypropylcellulose) (HPC) 100 % of control | dose: 50.0 mg/kg/injection, schedule: Q01DX009 (ip), vehicle: Klucel (hydroxypropylcellulose) (HPC) 100 % of control

CC(C)N(c1ccc(C(=O)O)cc1)C(C)C
inactive: dose: 100.0 mg/kg/injection, schedule: Q01DX009 (ip), vehicle: carboxymethylcellulose (CMC) 102 % of control and 109 % of control | dose: 100.0 mg/kg/injection, schedule: Q04DX002 (ip), vehicle: carboxymethylcellulose (CMC) 96 % of control and 98 % of control | dose: 100.0 mg/kg/injection, schedule: Q04DX003 (ip), vehicle: carboxymethylcellulose (CMC) 101 % of control | dose: 200.0 mg/kg/injection, schedule: Q01DX009 (ip), vehicle: carboxymethylcellulose (CMC) 102 % of control and 103 % of control | dose: 200.0 mg/kg/injection, schedule: Q04DX002 (ip), vehicle: carboxymethylcellulose (CMC) 95 % of control and 104 % of control | dose: 200.0 mg/kg/injection, schedule: Q04DX003 (ip), vehicle: carboxymethylcellulose (CMC) 98 % of control | dose: 400.0 mg/kg/injection, schedule: Q01DX009 (ip), vehicle: carboxymethylcellulose (CMC) 95 % of control and 97 % of control | dose: 400.0 mg/kg/injection, schedule: Q04DX002 (ip), vehicle: carboxymethylcellulose (CMC) 93 % of control and 86 % of control | dose: 400.0 mg/kg/injection, schedule: Q04DX003 (ip), vehicle: carboxymethylcellulose (CMC) 97 % of control

CC(C)C(NC(=O)C1CSC(C)(C)N1C=O)C(=O)OC1CCCCC1 (stereo unspecified)
inactive: [8] 97 % of control | [9] 101 % of control | [10] 90 % of control

O=C(c1ccccc1)C12CC3CC(CC(C3)C1)C2
inactive: dose: 75.0 mg/kg/injection, schedule: Q04DX003 (ip), vehicle: Klucel (hydroxypropylcellulose) (HPC) 93 % of control | [11] 96 % of control | dose: 150.0 mg/kg/injection, schedule: Q04DX003 (ip), vehicle: Klucel (hydroxypropylcellulose) (HPC) 93 % of control | [12] 100 % of control | dose: 300.0 mg/kg/injection, schedule: Q04DX003 (ip), vehicle: Klucel (hydroxypropylcellulose) (HPC) 106 % of control | [13] 105 % of control

CCC(=O)N/N=C/C=N/NC(=O)c1ccncc1
inactive: dose: 75.0 mg/kg/injection, schedule: Q01DX001 (ip), vehicle: saline 96 % of control | [11] 97 % of control | [5] 93 % of control | dose: 150.0 mg/kg/injection, schedule: Q01DX001 (ip), vehicle: saline 99 % of control | [12] 101 % of control | [6] 100 % of control | dose: 300.0 mg/kg/injection, schedule: Q01DX001 (ip), vehicle: saline 92 % of control | [13] 94 % of control

N#CC(C#N)=NNc1cccc(Cl)c1
inactive: dose: 200.0 mg/kg/injection, schedule: Q04DX003 (ip), vehicle: Klucel (hydroxypropylcellulose) (HPC) 96 % of control | dose: 400.0 mg/kg/injection, schedule: Q04DX003 (ip), vehicle: Klucel (hydroxypropylcellulose) (HPC) 101 % of control

COc1ccc(C(O)(c2ccc(OC)cc2)c2ccccn2)cc1
inactive: [8] 95 % of control | [9] 102 % of control | [10] 91 % of control
